Assay results published in PubChem BioAssay AID651745 (NMMLSC, 2012).
Activity calls are given as the source filed them.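 Rule for the calls: active = GFP positive cell share at least 15% at top dose plus 60%-effect dose below 60 µM; inactive = the rest.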

Test system: not listed separately
Test: promoters of myeloid differentiation, HoxA9-arrested cells, dose response, cell-based, lysozyme-GFP, flow cytometry, Cherry Pick01 (AID 651745)
Conditions: ER-HoxA9 myeloid progenitors, lysozyme-GFP differentiation, flow cytometry; at 2.19 µM (top of the series)

Structure (SMILES)	percent GFP positive (differentiation)
Cn1c(=O)c2cc(NC(=O)NCc3ccc(F)cc3)ccc2n1C/C=C/c1ccccc1	1.7% (inactive)

Same assay, conditions: ER-HoxA9 myeloid progenitors, lysozyme-GFP differentiation, flow cytometry; at 4.37 µM (top of the series)

Structure (SMILES)	percent GFP positive (differentiation)
Clc1ccc(Cn2ncc3c(N4CCN(c5ccccc5)CC4)ncnc32)cc1	1.8% (inactive)
Cc1nn(-c2ccccc2)c(N2CCCC2)c1/C=N/NC(=S)Nc1ccccc1F	2.2% (inactive)
O=C(NCc1ccccc1)C1=C[C@@H](c2csc3ccccc23)C[C@@H](OCc2ccc(CO)cc2)O1	1.2% (inactive)

Same assay, conditions: ER-HoxA9 myeloid progenitors, lysozyme-GFP differentiation, flow cytometry; at 6.6 µM (top of the series)

Structure (SMILES)	percent GFP positive (differentiation)
Cn1cc(-c2cnc3c(NC=O)cc(-c4cccc(C(F)(F)F)c4)cn23)cn1	2.3% (inactive)
c1cc(SC2CCCCC2)cc(-c2nc3cnccn3c2NC2CCCCC2)c1	4.8% (inactive)
COc1ccc(NC2=C(NC(C)=O)C(=O)c3ccccc3C2=O)cc1	20.3% (inactive)
Brc1ccc(-c2csc3[n+]2CCCCC3)cc1	9.9% (inactive)
CCOC(=O)c1c(NC(=O)C(C)OC(=O)c2ccc(NC(=O)CC#N)cc2)sc2c1CCCC2 (stereo not drawn)	1.6% (inactive)

Same assay, conditions: ER-HoxA9 myeloid progenitors, lysozyme-GFP differentiation, flow cytometry; at 13.2 µM (top of the series)

Structure (SMILES)	percent GFP positive (differentiation)
O=CNc1ccc2c3c(cccc13)-c1ccccc1-2	1.9% (inactive)
CCCN1CCc2c(sc(NC(=O)c3ccc(S(=O)(=O)N(C)c4ccccc4)cc3)c2C(=O)NC)C1	89.5% (inactive)
CN(Cc1ccc(Cl)c(Cl)c1)C(=O)C1=CC=CN2CCS(=O)(=O)N=C12	6.5% (inactive)
COc1ccc(/C=C/C(O)=C2/C(=O)N(C)C3(C)CC2c2ccccc2O3)cc1 (stereo not drawn)	5.7% (inactive)
C=CCN(c1ccccc1OC)S(=O)(=O)c1ccc(Cl)c(C(=O)NCc2ccco2)c1	2.5% (inactive)
CCCc1nc2c3ccccc3ccn2c1Cc1ccc(OC)cc1C	2.2% (inactive)
CNC(=O)c1c(NC(=O)c2ccc(S(=O)(=O)N3CCCc4ccccc43)cc2)sc2c1CCN(C)C2	4.8% (inactive)
CCC1(c2ccc(F)cc2)NC(=O)N(CC(=O)N2CCN(S(=O)(=O)c3ccc(C)cc3C)CC2)C1=O (stereo not drawn)	1.95% (inactive)
COC(=O)C1=C(c2cc3ccccc3s2)C[C@@H]2CC[C@H]1N2C(=O)NC1CCCCC1	4.3% (inactive)
Nc1ccc(C#Cc2ccc3c(=O)c4ccccc4oc3c2)cc1	15.2% (inactive)
C[n+]1c(/C=C/c2ccc3c(c2)OCO3)ccc2ccccc21	3.3% (inactive)
CCCCOc1ccc(OC(=O)Nc2cc(Cl)ccc2OC)cc1	2.55% (inactive)
CCOC(=O)c1c(NC(=O)C(C)Sc2cccc[n+]2[O-])sc2c1CCN(Cc1ccccc1)C2 (stereo not drawn)	1.7% (inactive)

Same assay, conditions: ER-HoxA9 myeloid progenitors, lysozyme-GFP differentiation, flow cytometry; at 19.9 µM (top of the series)

Structure (SMILES)	percent GFP positive (differentiation)
COc1ccccc1NC(=O)c1cccc(S(=O)(=O)N2CCN(c3ccccc3)CC2)c1	4.3% (inactive)
CCC(CO)n1c(SCc2cc(=O)oc3cc(C)ccc23)nc2ccccc2c1=O (stereo not drawn)	2.7% (inactive)
O=C(CCCN1C(=O)/C(=C/c2ccco2)SC1=S)Nc1cccc(C(=O)O)c1	7.4% (inactive)
C/C(N)=C(/C#N)C(=O)COC(=O)c1cc(C)n(-c2ccc(F)cc2)c1C	10.9% (inactive)
COc1ccc(-n2c(C)cc(/C=C3\SC(=S)N(Cc4ccco4)C3=O)c2C)cc1	7.7% (inactive)
O=c1[nH][nH]cc1C=Nc1ccccc1O	2.8% (inactive)
Cc1ccc(OCc2nnc(SCc3nc4ccccc4[nH]3)n2Cc2ccco2)cc1	3.4% (inactive)
CCOC(=O)C1=C(CN2CCc3ccccc32)NC(=O)NC1c1cccc([N+](=O)[O-])c1 (stereo not drawn)	10.5% (inactive)
Cn1c(-c2ccccc2)c[n+]2c1-c1ccccc1C2	3.8% (inactive)
Cc1cccn2c(=O)c(/C=C3\SC(=S)NC3=O)c(NCCCN3CCOCC3)nc12	33% (inactive)

Same assay, conditions: ER-HoxA9 myeloid progenitors, lysozyme-GFP differentiation, flow cytometry; at 39.8 µM (top of the series)

Structure (SMILES)	percent GFP positive (differentiation)
COc1cccc(NC(=O)[C@H](Cc2c[nH]c3ccccc23)NC(=O)[C@@H]2Cc3ccccc3CN2)c1	3.5% (inactive)
CCCCN1C(N)=NC[C@@H]1Cc1ccc(O)cc1	3.4% (inactive)
N#CC(C#N)=c1ccc2c(c1)N1C(c3ccccc3)=CC(c3ccccc3)C3CCCCC31N=2 (stereo not drawn)	1% (inactive)
COc1ccc(C)cc1NC(=O)n1ncc2cc(Cl)ccc21	2.5% (inactive)
COc1ccc(NC(=S)N2CCC3CC2c2c(Cl)cccc23)c(OC)c1 (stereo not drawn)	0.6% (inactive)
CCOC(=O)c1c(NC(=O)c2nn(CC)cc2Br)c(C#N)cn1-c1ccccc1	0.4% (inactive)
COc1ccc2ccccc2c1CNC(=O)CC1C(=O)NCCN1CC(C)C (stereo not drawn)	7% (inactive)
COc1ccc(Cn2nnnc2CN2CCc3ccccc32)cc1	1.9% (inactive)
O=[N+]([O-])c1ccc(C[n+]2cccc3c4ccccc4ccc32)cc1	3.1% (inactive)
CCOc1ccccc1Nc1nc2ccc(C)cc2n2cnnc12	1.4% (inactive)
O=C(O)c1ccccc1N/N=C/c1c(Sc2nnnn2-c2ccccc2)nc2ccccn2c1=O	97.5% (inactive)
Cc1ccc(-c2nn3c(C)nnc3s2)cc1NC(=O)CSc1ccc(Cl)cc1	0.9% (inactive)
COc1ccccc1CN(Cc1nc2ccccc2c(=O)[nH]1)C(=O)Nc1ccc(C)cc1	1.4% (inactive)
C#CC[N+](CC)(CC)CC#Cc1ccccc1	4.1% (inactive)
CC(=O)c1c(N2CCOCC2)[nH]c(-c2ccccc2)nc1=S	5.35% (inactive)
CC(=O)c1c(NC(=O)c2ccccc2)[nH]c(-c2ccccc2)nc1=S	4% (inactive)
CCS(=O)(=O)c1nc(S(=O)(=O)c2ccc(Cl)cc2)c(N2CCC3(CC2)OCCO3)s1	5.1% (inactive)
Cc1c(N=C2NN=C(c3c[nH]c4ccccc34)CS2)c(=O)n(-c2ccccc2)n1C	5.55% (inactive)
C[n+]1ccccc1/C=C/c1ccc2ncccc2c1	4.4% (inactive)
Cc1cccc(N2CCN(C(=O)c3ccc4c(c3)OCCO4)CC2)c1C	2.1% (inactive)
COc1ccc(/C=C/c2cccc[n+]2C)c(O)c1	6.2% (inactive)

Test system: ER-HoxA9 myeloid progenitors, lysozyme-GFP differentiation, flow cytometry
Test: as above
Conditions: not given

Structure (SMILES)	EC50
C/C(=C1/SC(N2CCCC2)=NC1=O)c1ccc(Br)cc1	2.08 µM
O=C(O)c1cccnc1Nc1ccc(Cl)cc1	5.88 µM
O=C(O)c1ccccc1Nc1ccc([N+](=O)[O-])cc1	6.05 µM
CCCCn1c(N)c(N(CC(C)C)C(=O)Cc2ccc(S(=O)(=O)N3CCOCC3)s2)c(=O)[nH]c1=O	20.2 µM
Cc1cccn2cc(COc3ccc(-c4ccccc4)cc3)nc12	2.24 µM
Cc1ccc(Nc2nc(=O)c3cccnc3s2)c(Br)c1	4.47 µM
Cc1cc(NC(=O)COC(=O)c2c(C)nn(Cc3ccccc3)c2Cl)no1	4.44 µM
O=C(CCNC(=O)c1ccc(Br)cc1)NC1CCCc2ccccc21 (stereo not drawn)	5.32 µM
N#C/C(=C\N1CCN(Cc2ccc3c(c2)OCO3)CC1)c1nc2ccccc2s1	6.5 µM
Cn1ccc2c(-c3ccc(C(C)(C)C)cc3)cc3c(c21)C1CCC3O1 (stereo not drawn)	5.62 µM
O[C@H]1C[C@H](c2ccc(Cl)cc2)N(Cc2cccs2)C[C@@H]1n1cc(C2CC2)nn1	4.9 µM
CC(=O)Nc1ccc(C2=CC(=O)C[C@H](c3ccc(Cl)cc3)C2)cc1	24.7 µM
COC(=O)c1cc2c(=O)c3ccccc3oc2nc1/C=C/N(C)C	6.88 µM
CCC(C)Sc1ccc(-c2nc3cc(C)ccn3c2NC2CCCCC2)cc1 (stereo not drawn)	21.3 µM
COc1ccccc1C1N(c2ccc(Cl)cc2)C(=O)C2CCCN21 (stereo not drawn)	6.47 µM
